Patent publication US11964973B2 (priority 2019, dated 2024)
pEC50, pIC50: −log10 of the molar value. Like-named read-outs stand apart in the source and are kept apart here.

Legend:
[1] = target: human DGKζ (Homo sapiens (Human), UniProt Q13574); test: biochemical; assay type: biochemical; settings: liposome (LIPGLO) assay
[2] = system: human venous whole blood, CD8 positive population (pERK); test: DGK human whole blood pERK assay; assay type: cell-based
Experimental: Assay 11: DGK Human Whole Blood pERK Assay
Human whole blood ERK phosphorylation assay was performed with human venous whole blood obtained from healthy donors (drawn with Heparin as anti-coagulant). […] Heparinized human whole blood was added to the compound plate at 9 μL per well and incubated for one hour at 37° C. in a humidified 95%, air/5% CO2 incubator. After one hour of compound incubation, 1 μL of human anti-CD3 antibody (in-house) in the presence of cross-linking antibody goat anti-mouse IgG (4 μg/mL) was added to the well at 1 μg/mL final concentration for stimulation of pathway and additionally incubated for 15 minutes at 37° C. […] Samples analyzed using the Intellicyt® iQue Screener PLUS. The pERK activation was quantitated by the percentage of pERK positive population within CD8 positive population.

[3] = system: Human venous whole blood (IFN-γ); test: Human whole blood IFN-γ assay; assay type: cell-based
Experimental: Assay 10: Human Whole Blood IFN-γ Assay
Human venous whole blood (22.5 μL per well), obtained from healthy donors, was pre-treated with compounds for one hour at 37° C. in a humidified 95% air/5% CO2 incubator. The blood was stimulated with 2.5 μL anti-human CD3 and anti-CD28 mAb at a final concentration of 1 μg/mL each for 24 hours at 37° C. IFN-γ in the supernatants was measured using AlphLISA kit (Cat #AL217).

[4] = human whole blood pERK, read-out: DGK HWB
[5] = Homo sapiens, CD8 positive, read-out: DGK HWB, human whole blood pERK
[6] = read-out: DGK HWB, human whole blood pERK
[7] = Homo sapiens, human whole blood IFN-γ, read-out: INFg Whole Blood
[8] = Homo sapiens, 24 h, human whole blood, anti-CD3 plus anti-CD28, 24 hours, read-out: INFg Whole Blood Normalized Agonist EC50

human DGKζ, sequence (Q13574 whole entry, looked up): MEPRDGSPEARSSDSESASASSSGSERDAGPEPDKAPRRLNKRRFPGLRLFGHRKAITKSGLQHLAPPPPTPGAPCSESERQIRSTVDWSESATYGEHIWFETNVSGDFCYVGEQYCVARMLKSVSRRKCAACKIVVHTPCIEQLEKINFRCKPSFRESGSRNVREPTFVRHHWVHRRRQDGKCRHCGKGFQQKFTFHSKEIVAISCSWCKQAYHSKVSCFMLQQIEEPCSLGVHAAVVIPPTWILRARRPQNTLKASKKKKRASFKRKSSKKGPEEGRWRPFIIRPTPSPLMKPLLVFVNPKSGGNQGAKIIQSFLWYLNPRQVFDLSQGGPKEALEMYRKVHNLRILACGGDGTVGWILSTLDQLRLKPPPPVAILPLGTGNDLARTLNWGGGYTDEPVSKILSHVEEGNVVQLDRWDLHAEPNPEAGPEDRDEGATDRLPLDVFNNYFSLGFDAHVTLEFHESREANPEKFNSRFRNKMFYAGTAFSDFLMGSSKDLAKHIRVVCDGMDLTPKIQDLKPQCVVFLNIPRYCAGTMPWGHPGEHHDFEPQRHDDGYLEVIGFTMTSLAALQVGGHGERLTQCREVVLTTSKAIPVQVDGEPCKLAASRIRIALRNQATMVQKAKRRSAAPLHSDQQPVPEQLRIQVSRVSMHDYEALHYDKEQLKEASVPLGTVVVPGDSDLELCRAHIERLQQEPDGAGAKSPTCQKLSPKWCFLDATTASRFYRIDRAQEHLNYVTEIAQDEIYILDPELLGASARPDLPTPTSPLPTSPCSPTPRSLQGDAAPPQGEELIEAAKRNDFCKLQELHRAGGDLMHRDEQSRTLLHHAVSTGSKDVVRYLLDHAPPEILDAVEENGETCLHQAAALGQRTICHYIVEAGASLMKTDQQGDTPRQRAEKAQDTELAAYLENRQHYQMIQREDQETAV

CC[C@@H]1CN(c2cc(=O)n(C)c3ccc(C#N)nc23)CC[C@@H]1Oc1ccc(OC(C)C)cn1 [Example 203, 8-((3R,4S)-3-ethyl-4-((5-isopropoxypyridin-2-yl)oxy)piperidin-1-yl)-5-methyl-6-oxo-5,6-dihydro-1,5-naphthyridine-2-carbonitrile] was tested. Which pIC50 ([1]; Table A, read-out: DGKζ) did it give?
Its pIC50 is 6.64.

How did the pEC50 [2, 4] turn out when CCO[C@H]1CN(c2cc(=O)n(C)c3ccc(C#N)nc23)CC[C@@H]1Oc1ccc2oc(C)nc2c1 [Example 356, 8-((3S,4S)-3-ethoxy-4-((2-methylbenzo[d]oxazol-5-yl)oxy)piperidin-1-yl)-5-methyl-6-oxo-5,6-dihydro-1,5-naphthyridine-2-carbonitrile] was run?
The pEC50 was 5.41.

CC(C)Oc1ccc(OC2C[C@@H](C)N(c3nc(=O)n(C)c4ccc(C#N)nc34)C[C@@H]2C)nc1 (stereo partly drawn) [Example 248, 4-((2R,5S)-4-((5-isopropoxypyridin-2-yl)oxy)-2,5-dimethylpiperidin-1-yl)-1-methyl-2-oxo-1,2-dihydropyrido[3,2-d]pyrimidine-6-carbonitrile] was tested. Which pEC50 [2, 5] did it give?
The pEC50 was 6.13.

Cn1c(=O)nc(N2CC[C@@H](Oc3cccc(C(F)(F)F)c3)[C@H](O)C2)c2nc(C#N)ccc21 (single isomer, unassigned) [Example 273, (+/−)-trans-4-(3-hydroxy-4-(3-(trifluoromethyl)phenoxy)piperidin-1-yl)-1-methyl-2-oxo-1,2-dihydropyrido[3,2-d]pyrimidine-6-carbonitrile] was tested. Which pIC50 ([1]; Table A, read-out: DGKζ) did it give?
Its pIC50 is 5.33.

How did the pEC50 [2, 5] turn out when CC(C)Oc1ccc(OC2C[C@H](C)N(c3nc(=O)n(C)c4ccc(C#N)nc34)C[C@@H]2C)nc1 (mixture of isomers) [Example 243, (±)-Cis-(-4-((5-isopropoxypyridin-2-yl)oxy)-2,5-dimethylpiperidin-1-yl)-1-methyl-2-oxo-1,2-dihydropyrido[3,2-d]pyrimidine-6-carbonitrile] was run?
Its pEC50 is 6.23.

How did the pEC50 [2, 4] turn out when CC1CN(c2c(C#N)c(=O)n(C)c3ccc(C#N)nc23)CCC1N(C)C1CCC(F)(F)CC1 (single isomer, unassigned) [Example 330] was run?
The pEC50 was 4.70.

C[C@H]1CN(c2cc(=O)n(C)c3ccc(C#N)nc23)[C@@H](C)CC1N(C)Cc1ccc(F)cc1 (single isomer, unassigned) [Example 333] was tested. Which pEC50 [2, 6] did it give?
The pEC50 was 5.26.

How did the pEC50 [2, 4] turn out when CCO[C@H]1CN(c2cc(=O)n(C)c3ccc(C#N)nc23)CC[C@@H]1Oc1ccccc1 (relative stereo) [Example 342, trans-8-(3-Ethoxy-4-phenoxypiperidin-1-yl)-5-methyl-6-oxo-5,6-dihydro-1,5-naphthyridine-2-carbonitrile] was run?
Its pEC50 is 6.08.

With CC[C@@H]1CN(c2cc(=O)n(C)c3ccc(C#N)nc23)[C@H](C)C[C@@H]1Oc1ccc(OC(C)C)cn1 [Example 298, 8-((2R,4S,5R)-5-ethyl-4-((5-isopropoxypyridin-2-yl)oxy)-2-methylpiperidin-1-yl)-5-methyl-6-oxo-5,6-dihydro-1,5-naphthyridine-2-carbonitrile] as the compound, how does the pEC50 [2, 5] read?
Its pEC50 is 6.04.

How did the pEC50 ([2]; Homo sapiens, CD8 positive, human whole blood pERK, read-out: DGK HWB) turn out when C[C@H]1CN(c2cc(=O)n(C)c3ccc(C#N)nc23)[C@@H](C)C[C@H]1Oc1cccc(C#N)c1 [Example 314, 8-((2S,4R,5S)-4-(3-cyanophenoxy)-2,5-dimethylpiperidin-1-yl)-5-methyl-6-oxo-5,6-dihydro-1,5-naphthyridine-2-carbonitrile] was run?
The pEC50 was 4.80.

How did the pEC50 [2, 5] turn out when C[C@@H]1CC(Oc2cccc(C(F)(F)F)c2)[C@@H](C)CN1c1nc(=O)n(C)c2ccc(C#N)nc12 (stereo in doubt) [Example 251, 4-((2R,5S)-2,5-dimethyl-4-(3-(trifluoromethyl)phenoxy)piperidin-1-yl)-1-methyl-2-oxo-1,2-dihydropyrido[3,2-d]pyrimidine-6-carbonitrile] was run?
The pEC50 was 5.74.

How did the pEC50 [2, 6] turn out when CC(C)Oc1ccc(OC2C[C@@H](C)N(c3nc(=O)n(C)c4ccc(C#N)nc34)C[C@@H]2C)nc1 (stereo partly drawn) [Example 249, 4-((2R,5S)-4-((5-isopropoxypyridin-2-yl)oxy)-2,5-dimethylpiperidin-1-yl)-1-methyl-2-oxo-1,2-dihydropyrido[3,2-d]pyrimidine-6-carbonitrile] was run?
The pEC50 was 6.31.

How did the pIC50 ([1]; Table A, read-out: DGKζ) turn out when CC[C@@H]1CN(c2cc(=O)n(C)c3ccc(C#N)nc23)CC[C@@H]1Oc1ccc(OC(C)C)cn1 [Example 204, 8-((3R,4S)-3-ethyl-4-((5-isopropoxypyridin-2-yl)oxy)piperidin-1-yl)-5-methyl-6-oxo-5,6-dihydro-1,5-naphthyridine-2-carbonitrile] was run?
The pIC50 was 6.48.

How did the pEC50 [2, 4] turn out when CCO[C@H]1CN(c2cc(=O)n(C)c3ccc(C#N)nc23)CC[C@@H]1Oc1ccccc1C(F)(F)F [Example 345, 8-((3S,4S)-3-ethoxy-4-(2-(trifluoromethyl)phenoxy)piperidin-1-yl)-5-methyl-6-oxo-5,6-dihydro-1,5-naphthyridine-2-carbonitrile] was run?
The pEC50 was 6.09.

How did the pEC50 [2, 5] turn out when CC[C@@H]1CN(c2nc(=O)n(C)c3ccc(C#N)nc23)[C@H](C)C[C@@H]1Oc1ccc(OC(C)C)cn1 [Example 305, 4-((2R,4S,5R)-5-ethyl-4-((5-isopropoxypyridin-2-yl)oxy)-2-methylpiperidin-1-yl)-1-methyl-2-oxo-1,2-dihydropyrido[3,2-d]pyrimidine-6-carbonitrile] was run?
The pEC50 was 6.14.

With CC[C@@H]1CN(c2cc(=O)n(C)c3ccc(C#N)nc23)CC[C@H]1Oc1ccc(OC(C)C)cn1 [Example 192, 8-((3R,4R)-3-ethyl-4-((5-isopropoxypyridin-2-yl)oxy)piperidin-1-yl)-5-methyl-6-oxo-5,6-dihydro-1,5-naphthyridine-2-carbonitrile] as the compound, how does the pEC50 [3, 7] read?
The pEC50 was 6.54.

And the pIC50 ([1]; Table A, read-out: DGKζ)?
The pIC50 was 6.38.

Which results are given for CC[C@@H]1CN(c2cc(=O)n(C)c3ccc(C#N)nc23)CC[C@H]1Oc1ccc(OC(C)C)cc1 [Example 161, 8-((3R,4R)-3-ethyl-4-(4-isopropoxyphenoxy)piperidin-1-yl)-5-methyl-6-oxo-5,6-dihydro-1,5-naphthyridine-2-carbonitrile]?
pEC50 [3, 8]: 5.62; pIC50 ([1]; read-out: DGKζ LIPGLO IC50): 6.27

C[C@@H]1CN(c2cc(=O)n(C)c3ccc(C#N)nc23)CC[C@@H]1Oc1ccc(C(F)F)cn1 [Example 208, 8-((3R,4S)-4-((5-(difluoromethyl)pyridin-2-yl)oxy)-3-methylpiperidin-1-yl)-5-methyl-6-oxo-5,6-dihydro-1,5-naphthyridine-2-carbonitrile] was tested. Which pEC50 [3, 7] did it give?
The pEC50 was 5.68.

With C[C@@H]1CN(c2cc(=O)n(C)c3ccc(C#N)nc23)CC[C@@H]1Oc1ncc(C(F)(F)F)cn1 [Example 222, 5-methyl-8-((3R,4S)-3-methyl-4-((5-(trifluoromethyl)pyrimidin-2-yl)oxy)piperidin-1-yl)-6-oxo-5,6-dihydro-1,5-naphthyridine-2-carbonitrile] as the compound, how does the pEC50 [3, 7] read?
The pEC50 was 5.41.

CCc1ccc(O[C@@H]2CCN(c3cc(=O)n(C)c4ccc(C#N)nc34)C[C@H]2C)cc1 (racemic) [Example 110, 8-((3R,4R)-4-(4-ethylphenoxy)-3-methylpiperidin-1-yl)-5-methyl-6-oxo-5,6-dihydro-1,5-naphthyridine-2-carbonitrile] was tested. Which pEC50 [3, 8] did it give?
The pEC50 was 5.52.

With COc1ccnc(O[C@H]2CCN(c3cc(=O)n(C)c4ccc(C#N)nc34)C[C@H]2C)n1 [Example 218, 8-((3R,4S)-4-((4-methoxypyrimidin-2-yl)oxy)-3-methylpiperidin-1-yl)-5-methyl-6-oxo-5,6-dihydro-1,5-naphthyridine-2-carbonitrile] as the compound, how does the pEC50 [3, 7] read?
Its pEC50 is 4.70.

CC[C@@H]1CN(c2cc(=O)n(C)c3ccc(C#N)nc23)CC[C@H]1Oc1ccc(C(C)(C)C)cc1 (single isomer, unassigned) [Example 154] was tested. Which pEC50 ([3]; human whole blood, anti-CD3 plus anti-CD28, 24 hours, read-out: INFg Whole Blood Normalized Agonist EC50) did it give?
The pEC50 was 4.96.

C[C@@H]1CN(c2cc(=O)n(C)c3ccc(C#N)nc23)CC[C@H]1Oc1c(F)cccc1F [Example 125, 8-((3R,4R)-4-(2,6-difluorophenoxy)-3-methylpiperidin-1-yl)-5-methyl-6-oxo-5,6-dihydro-1,5-naphthyridine-2-carbonitrile] was tested. Which pEC50 [3, 8] did it give?
The pEC50 was 4.70.

C[C@@H]1CN(c2cc(=O)n(C)c3ccc(C#N)nc23)CC[C@H]1Oc1c(F)cccc1F (single isomer, unassigned) [Example 126] was tested. Which pEC50 [3, 8] did it give?
The pEC50 was 4.70.

How did the pEC50 ([3]; human whole blood IFN-γ, read-out: INFg Whole Blood) turn out when CC(C)Oc1ccc(OC2CCN(c3cc(=O)n(C)c4ccc(C#N)nc34)CC2(C)C)nc1 (single isomer, unassigned) [Example 233, 8-(4-((5-isopropoxypyridin-2-yl)oxy)-3,3-dimethylpiperidin-1-yl)-5-methyl-6-oxo-5,6-dihydro-1,5-naphthyridine-2-carbonitrile (rel)] was run?
Its pEC50 is 5.48.

With C[C@@H]1CN(c2cc(=O)n(C)c3ccc(C#N)nc23)CC[C@@H]1Oc1ncccn1 [Example 217, 5-methyl-8-((3R,4S)-3-methyl-4-(pyrimidin-2-yloxy)piperidin-1-yl)-6-oxo-5,6-dihydro-1,5-naphthyridine-2-carbonitrile] as the compound, how does the pEC50 [3, 7] read?
The pEC50 was 4.70.

CC(C)c1cccc(O[C@H]2CCN(c3cc(=O)n(C)c4ccc(C#N)nc34)C[C@H]2C)n1 (single isomer, unassigned) [Example 215] was tested. Which pEC50 [3, 7] did it give?
The pEC50 was 5.68.
